For nine molecules, GI50 and TGI results are on record in PubChem BioAssay (NCI).

Holding throughout (assay): inhibition of tumour cell growth, NCI panel, 48 h
Assay [1] concerns BT-549 breast.
Assay [2] concerns CAKI-1 renal.
The test system of assay [3] is COLO 205 colon.
The test system of assay [4] is DU-145 prostate.
In assay [5] the test system is LOX IMVI melanoma.
Assay [6] has as its system NCI-H23 lung.
Assay [7] has as its system NCI/ADR-RES ovarian.
Assay [8] deals with SN12C renal.
Assay [9] relates to SW-620 colon.
The test system of assay [10] is UACC-257 melanoma.

Each structure is given as a SMILES string. Where “and” joins values, the source holds several entries; their conditions need not be identical. Equal values may be shown once.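 Cultured in 96-well plates, cells were exposed to test compound for 48 hours across five concentrations. Abbreviation: GI50, concentration required for 50% inhibition of growth. TGI marks complete inhibition of growth.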

For the molecule `O=c1nc2oc3ccc4ccccc4c3cc-2s1`, the GI50 is 4.35 µM in assay [1]; 1.16 µM in assay [2]; 16.3 µM in assay [3]; 11.5 µM in assay [4]; 4.09 µM in [5]; 28.7 µM in assay [6]. In addition, the GI50 in assay [7] was > 100 µM; in assay [8] it was 20.4 µM; in [9], 1.05 µM; in assay [10] it was > 69.9 µM. Besides, the TGI in assay [1], in assay [2], in assay [3], in assay [4], in assay [5] and in [6] was > 100 µM each time. For the same molecule, the TGI in assay [7], in assay [8], in [9] and in assay [10] was > 100 µM throughout.

For the molecule `O=C(NN1C(=O)CSC12CCCC2)c1[nH]c2ccc(Br)cc2c1-c1ccccc1`, the GI50 in [1] was 93.5 µM; in assay [2] it was 32.8 µM; in assay [3], 53.4 µM; in assay [4], > 100 µM; in assay [5], 45.5 µM; in assay [6], 41.1 µM. The GI50 in assay [8] is 25.9 µM; in assay [9], 74.6 µM; in assay [10], > 100 µM. The TGI in assay [1], in assay [2], in assay [3], in [4], in [5] and in [6] was > 100 µM throughout. Further, the TGI in assay [8] is 77 µM; in [9] it was > 100 µM; in assay [10], > 100 µM.

Take `CN1CC[C@@H](c2c(O)cc(O)c3c(=O)cc(-c4ccccc4Cl)oc23)[C@@H]1CO`: the GI50 in assay [1] was 0.38 µM; in assay [2], 0.204 µM; in [3], 0.262 µM; in assay [4] it was 0.365 µM; in assay [6], 0.288 µM; in assay [7], 1.57 µM. Also, the results for the GI50 in [8], in [9] and in assay [10] were 0.299 µM, 0.276 µM and 0.296 µM, respectively. Further, the TGI in assay [1] was 2.52 µM; in assay [2] it was > 2.56 µM; in assay [3] it was 0.785 µM; in assay [4], > 10 µM; in [6] it was 3.03 µM; in [7] it was > 10 µM. The TGI in [8] is > 10 µM; in assay [9] it was > 10 µM; in assay [10], 1.36 µM.

With `CCCOC(=O)N1CCN(/[N+]([O-])=N/Oc2ccc([N+](=O)[O-])cc2[N+](=O)[O-])CC1`, the GI50 was 3.46 µM in assay [1]; 2.16 µM in assay [2]; 2.59 µM in assay [3]; 1.81 µM in [4]; 0.32 µM in [5]; 2.25 µM in assay [6]. In addition, the GI50 is 3.31 µM in assay [7], 2.58 µM in assay [8] and 9.52 µM in assay [10]. Further, the TGI stood at 11.7 µM in [1]; 5.04 µM in assay [2]; 6.21 µM in [3]; 3.53 µM in [4]; 1.08 µM in [5]; 5.34 µM in assay [6]. The TGI in [7] was > 100 µM; in [8] it was 6.94 µM; in assay [10], 24.2 µM.

Regarding `C[C@]12CC[C@H]3[C@@H](CC[C@]4(O)C[C@@H](O)CC[C@]34/C=N/O)[C@@]1(O)CC[C@@H]2C1=COC(=O)C1`, the TGI was found to be 0.245 µM in assay [1]; 0.0476 µM in [2]; 1.33 µM in assay [3]; 0.111 µM in assay [4]; 0.489 µM in assay [5]; 0.272 µM in assay [6]. The TGI in assay [7] is 0.604 µM; in assay [8] it was 1.24 µM; in assay [10], 1.62 µM.

Turning to `COC(=O)c1cc2ccc(OC(C)=O)c(OC(C)=O)c2cn1`, the TGI was 35.9 µM in assay [2]; 36.3 µM in assay [3]; 76.3 µM in assay [4]; 3.63 µM and 2.6 µM in [5]; 36.8 µM in assay [6]; 70 µM in assay [7]. Besides, the values for the TGI in assay [8], in assay [9] and in assay [10] were 21.3 µM, 31.9 µM and 29.2 µM, respectively. In addition, the GI50 is 27.3 µM in [7], 6.91 µM in assay [8] and 13.4 µM in assay [9].

For the molecule `NC(=O)c1c(NC(=O)c2ccc3c(c2)OCO3)sc2c1CCC(=O)C2`, the GI50 in assay [1] is 0.373 µM; in assay [3], 2.49 µM; in [4], 4.5 µM; in [5], 1.15 µM; in [6] it was 1.32 µM; in assay [7], 2.2 µM. For the same molecule, the GI50 in assay [8] was 3.03 µM. The TGI in assay [1] is 5.57 µM; in [3] it was 7.42 µM; in [4], > 100 µM; in [5], > 100 µM; in [6] it was 5.64 µM; in assay [7] it was > 100 µM. For the same molecule, the TGI in assay [8] is > 100 µM.

With `O=C(Nc1ccc(Cl)c(Cl)c1)O/N=C\c1c(Cl)ccc([N+](=O)[O-])c1Cl`, the GI50 in assay [1] was 2.57 µM; in assay [2] it was 1.67 µM; in assay [3], 2.4 µM; in assay [4], 1.73 µM; in [5], 1.24 µM; in [6] it was 2.95 µM. The GI50 was 4.33 µM in [7], 2.59 µM in assay [8] and 1.46 µM in assay [10]. Also, the TGI in assay [1] came out at 6.42 µM; in [2], 3.38 µM; in assay [3], 4.81 µM; in assay [4], 3.23 µM; in [5], 2.76 µM; in [6], 9.7 µM. The TGI in [7] stood at 17.2 µM; in assay [8] it was 8.52 µM; in assay [10], 2.86 µM.

On to `COc1ccc(OC)c(-c2c(C#N)c(N)nc(N3CCOCC3)c2C#N)c1`, for which the GI50 was > 100 µM in assay [1]; 43.4 µM in [2]; > 100 µM in assay [3]; > 100 µM in assay [4]; > 100 µM in assay [5]; > 100 µM in [7]. Besides, the GI50 in assay [8] is 73 µM; in assay [9], > 100 µM; in [10], 39.4 µM. In addition, the TGI was > 100 µM in [1]; 97 µM in assay [2]; > 100 µM in [3]; > 100 µM in assay [4]; > 100 µM in [5]; > 100 µM in [7]. In addition, the TGI in assay [8], in assay [9] and in assay [10] was > 100 µM throughout.
